Measured values from US20250136578A1 (Kolm Therapeutics Inc., priority 2023, published 2025).

Legend:
AR / CBP ternary complex = AR / CBP ternary complex (Homo sapiens, UniProt P10275+Q92793); assay: Ternary complex formation assay (sandwich ELISA, AR capture, CBP antibody detection) in VCaP cell lysates; assay type: cell-based; settings: treated 1.5 hours, rabbit CBP or p300 antibody detection, average, read-out: Average Ternary Complex
Procedure, shortened: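 VCaP cells in 5% charcoal-stripped FBS were cultured ≥3 days and then given bifunctional compound for 1.5 h. Lysates went onto AR-antibody-coated plates. Bound CBP (or p300) was detected with a rabbit antibody plus HRP anti-rabbit, using QuantaRed chemifluorescence (ex 570/em 585) read immediately, at 5 min and at 15 min.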

VCaP cells = assay: VCaP growth inhibition assay (CTG); assay type: cell-based; settings: Homo sapiens, 216 h, 30 pM R1881, 9 days
Procedure, shortened: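 VCaP cells in phenol red-free DMEM with 5% charcoal-stripped serum were stimulated with 30 pM R1881 (final) and treated with compound from 100 nM to 10 fM final (1:5 dilutions) for 9 days at 37 °C. Viability was read by CellTiter-Glo luminescence, and IC50 came from 4-parameter logistic fits.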

Chain of AR / CBP ternary complex (P10275 whole entry): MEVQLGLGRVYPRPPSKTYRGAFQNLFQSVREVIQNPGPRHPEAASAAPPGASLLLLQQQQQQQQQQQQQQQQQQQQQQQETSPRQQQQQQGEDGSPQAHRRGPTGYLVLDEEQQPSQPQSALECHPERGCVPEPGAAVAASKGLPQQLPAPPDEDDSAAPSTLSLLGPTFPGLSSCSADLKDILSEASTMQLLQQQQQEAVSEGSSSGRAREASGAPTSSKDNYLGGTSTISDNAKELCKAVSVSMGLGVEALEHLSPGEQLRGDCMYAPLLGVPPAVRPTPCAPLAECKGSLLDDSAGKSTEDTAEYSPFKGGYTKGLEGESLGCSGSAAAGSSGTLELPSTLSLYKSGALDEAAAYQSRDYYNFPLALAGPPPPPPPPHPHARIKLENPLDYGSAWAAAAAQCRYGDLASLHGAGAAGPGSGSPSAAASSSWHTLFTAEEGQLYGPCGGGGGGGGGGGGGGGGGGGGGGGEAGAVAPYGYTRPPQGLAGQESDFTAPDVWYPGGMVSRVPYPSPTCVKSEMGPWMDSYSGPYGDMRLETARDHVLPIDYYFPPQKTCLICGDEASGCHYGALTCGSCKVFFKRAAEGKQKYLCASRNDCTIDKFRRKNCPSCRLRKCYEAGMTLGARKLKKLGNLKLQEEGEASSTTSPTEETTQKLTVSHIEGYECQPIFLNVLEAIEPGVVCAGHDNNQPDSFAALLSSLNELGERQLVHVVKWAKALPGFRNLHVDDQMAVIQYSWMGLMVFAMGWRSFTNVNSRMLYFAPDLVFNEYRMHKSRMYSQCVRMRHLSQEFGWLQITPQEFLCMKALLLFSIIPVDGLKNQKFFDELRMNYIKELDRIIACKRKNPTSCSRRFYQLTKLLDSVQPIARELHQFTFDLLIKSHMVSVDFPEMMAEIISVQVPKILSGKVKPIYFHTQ
Chain of AR / CBP ternary complex (Q92793 2-2442): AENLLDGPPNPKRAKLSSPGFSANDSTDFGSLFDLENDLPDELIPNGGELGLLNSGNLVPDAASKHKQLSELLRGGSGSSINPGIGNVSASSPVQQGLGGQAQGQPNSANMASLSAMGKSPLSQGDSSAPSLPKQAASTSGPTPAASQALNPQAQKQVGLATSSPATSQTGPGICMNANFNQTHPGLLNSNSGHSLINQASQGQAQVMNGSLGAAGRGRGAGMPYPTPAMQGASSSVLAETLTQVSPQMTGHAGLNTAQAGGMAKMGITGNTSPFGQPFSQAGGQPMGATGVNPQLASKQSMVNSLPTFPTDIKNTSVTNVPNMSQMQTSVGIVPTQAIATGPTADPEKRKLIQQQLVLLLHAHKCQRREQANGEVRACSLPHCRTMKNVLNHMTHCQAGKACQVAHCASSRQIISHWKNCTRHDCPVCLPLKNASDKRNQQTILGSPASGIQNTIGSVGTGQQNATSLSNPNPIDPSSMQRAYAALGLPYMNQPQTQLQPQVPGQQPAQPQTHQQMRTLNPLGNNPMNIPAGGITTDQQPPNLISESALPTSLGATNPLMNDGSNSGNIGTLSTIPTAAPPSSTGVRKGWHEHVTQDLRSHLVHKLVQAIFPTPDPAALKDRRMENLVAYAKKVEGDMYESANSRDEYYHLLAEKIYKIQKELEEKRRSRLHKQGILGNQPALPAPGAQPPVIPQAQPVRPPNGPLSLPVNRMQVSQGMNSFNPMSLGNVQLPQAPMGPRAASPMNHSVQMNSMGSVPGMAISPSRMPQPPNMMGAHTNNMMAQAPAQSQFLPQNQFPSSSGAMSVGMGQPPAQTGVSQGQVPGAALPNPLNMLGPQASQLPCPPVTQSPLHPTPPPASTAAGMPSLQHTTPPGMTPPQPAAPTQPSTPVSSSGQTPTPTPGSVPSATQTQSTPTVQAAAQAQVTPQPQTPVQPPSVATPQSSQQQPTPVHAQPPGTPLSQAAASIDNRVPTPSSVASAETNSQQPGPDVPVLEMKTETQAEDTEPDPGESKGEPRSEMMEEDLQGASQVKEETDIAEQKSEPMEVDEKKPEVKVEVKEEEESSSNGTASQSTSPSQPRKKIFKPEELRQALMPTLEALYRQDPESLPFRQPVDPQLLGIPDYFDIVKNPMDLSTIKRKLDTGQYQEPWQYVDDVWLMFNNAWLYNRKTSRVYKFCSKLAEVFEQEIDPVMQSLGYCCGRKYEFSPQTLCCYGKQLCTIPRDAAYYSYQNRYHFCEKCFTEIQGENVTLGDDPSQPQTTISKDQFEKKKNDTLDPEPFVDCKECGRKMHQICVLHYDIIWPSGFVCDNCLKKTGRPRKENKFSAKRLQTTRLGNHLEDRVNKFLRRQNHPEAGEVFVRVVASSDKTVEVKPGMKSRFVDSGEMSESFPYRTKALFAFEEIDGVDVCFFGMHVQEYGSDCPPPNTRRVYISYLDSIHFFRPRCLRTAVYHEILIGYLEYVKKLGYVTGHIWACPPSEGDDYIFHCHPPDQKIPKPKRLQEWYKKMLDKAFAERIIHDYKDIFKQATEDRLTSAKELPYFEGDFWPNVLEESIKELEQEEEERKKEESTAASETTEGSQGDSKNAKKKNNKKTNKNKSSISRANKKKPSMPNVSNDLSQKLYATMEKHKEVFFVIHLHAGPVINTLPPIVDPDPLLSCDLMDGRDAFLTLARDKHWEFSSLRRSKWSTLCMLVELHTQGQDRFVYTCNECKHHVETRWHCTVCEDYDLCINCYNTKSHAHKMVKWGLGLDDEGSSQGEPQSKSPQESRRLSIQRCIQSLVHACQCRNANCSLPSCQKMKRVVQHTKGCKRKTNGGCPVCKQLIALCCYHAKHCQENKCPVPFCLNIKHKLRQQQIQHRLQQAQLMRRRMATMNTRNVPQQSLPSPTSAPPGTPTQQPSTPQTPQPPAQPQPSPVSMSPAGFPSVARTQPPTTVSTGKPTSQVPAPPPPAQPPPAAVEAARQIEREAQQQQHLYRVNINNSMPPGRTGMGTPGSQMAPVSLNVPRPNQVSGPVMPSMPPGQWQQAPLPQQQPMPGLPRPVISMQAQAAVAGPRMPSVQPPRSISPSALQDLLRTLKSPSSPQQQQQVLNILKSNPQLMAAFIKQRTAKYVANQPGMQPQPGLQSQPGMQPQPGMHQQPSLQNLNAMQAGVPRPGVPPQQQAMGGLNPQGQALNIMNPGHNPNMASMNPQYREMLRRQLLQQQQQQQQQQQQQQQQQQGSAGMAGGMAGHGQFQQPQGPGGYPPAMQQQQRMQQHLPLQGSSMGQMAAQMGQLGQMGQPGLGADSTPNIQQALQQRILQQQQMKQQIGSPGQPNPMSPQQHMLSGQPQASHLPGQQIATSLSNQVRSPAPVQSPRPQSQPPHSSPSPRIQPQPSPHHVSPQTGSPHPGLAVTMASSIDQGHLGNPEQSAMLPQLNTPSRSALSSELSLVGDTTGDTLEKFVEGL

| Structure (SMILES) | EC50 (AR / CBP ternary complex) | IC50 (VCaP cells) |
| --- | --- | --- |
| Cn1c(=O)n(C)c2cc(-c3cccc4cc(-c5ccc(CCC6CCN(c7ccc(C(=O)N[C@H]8CC[C@H](Oc9ccc(C#N)c(Cl)c9)CC8)nn7)CC6)nc5)ncc34)ccc21 [Compound 52, N-[4-(3-chloro-4-cyano-phenoxy)cyclohexyl]-6-[4-[2-[5-[8-(1,3-dimethyl-2-oxo-benzimidazol-5-yl)-3-isoquinolyl]-2-pyridyl]ethyl]-1-piperidyl]pyridazine-3-carboxamide] | 1 to 10 nM | > 100 nM |
| CC(=O)N1CCc2c(c(-c3cccc4cc(-c5cnn(CC6CC7(C6)CN(c6ccc(C(=O)N[C@H]8CC[C@H](Oc9ccc(C#N)c(Cl)c9)CC8)nn6)C7)c5)ncc34)nn2C2CCOCC2)C1 [Compound 46, 6-[6-[[4-[8-(5-acetyl-1-tetrahydropyran-4-yl-6,7-dihydro-4H-pyrazolo[4,3-c]pyridin-3-yl)-3-isoquinolyl]pyrazol-1-yl]methyl]-2-azaspiro[3.3]heptan-2-yl]-N-[4-(3-chloro-4-cyano-phenoxy)cyclohexyl]pyridazine-3-carboxamide] | < 1 nM | 0.1 to 1 nM |
| CC(=O)N1CCc2c(c(N3CCCc4cc(-c5cnn(C)c5)c(C(F)F)cc43)nn2C2CCN([C@@H]3CCN(c4ccc(C(=O)N[C@H]5CC[C@H](Oc6ccc(C#N)c(Cl)c6)CC5)nn4)C[C@@H]3C)CC2)C1 [Compound 200] | < 1 nM | ≤ 0.1 nM |
| CC(=O)N1CCc2c(c(-c3cccc4cc(-c5cnn(C)c5)ncc34)nn2C2CCN(CCC3CCN(c4ccc(C(=O)N[C@H]5CC[C@H](Oc6ccc(C#N)c(Cl)c6)CC5)nn4)CC3)CC2)C1 [Compound 5, 6-[4-[2-[4-[5-acetyl-3-[3-(1-methylpyrazol-4-yl)-8-isoquinolyl]-6,7-dihydro-4H-pyrazolo[4,3-c]pyridin-1-yl]-1-piperidyl]ethyl]-1-piperidyl]-N-[4-(3-chloro-4-cyano-phenoxy)cyclohexyl]pyridazine-3-carboxamide] | < 1 nM | ≤ 0.1 nM |
| CC(=O)N1CCc2c(c(N3CCCc4cc(-c5cnn(C)c5)c(C(F)F)cc43)nn2C2CCN(C3(C)CCN(c4ccc(C(=O)N[C@H]5CC[C@H](Oc6ccc(C#N)c(Cl)c6)CC5)nn4)CC3)CC2)C1 [Compound 201, 6-[4-[4-[5-acetyl-3-[7-(difluoromethyl)-6-(1-methylpyrazol-4-yl)-3,4-dihydro-2H-quinolin-1-yl]-6,7-dihydro-4H-pyrazolo[4,3-c]pyridin-1-yl]-1-piperidyl]-4-methyl-1-piperidyl]-N-[4-(3-chloro-4-cyano-phenoxy)cyclohexyl]pyridazine-3-carboxamide] | < 1 nM | ≤ 0.1 nM |
| COC(=O)N1c2ccc3c(nc(Cc4ccccc4)n3[C@H]3CCC[C@H](CN4CCN(c5ccc(C(=O)N[C@H]6CC[C@H](Oc7ccc(C#N)c(Cl)c7)CC6)nn5)CC4)C3)c2CC[C@@H]1C [Compound 232, methyl (7S)-2-benzyl-3-[(1S,3S)-3-[[4-[6-[[4-(3-chloro-4-cyano-phenoxy)cyclohexyl]carbamoyl]pyridazin-3-yl]piperazin-1-yl]methyl]cyclohexyl]-7-methyl-8,9-dihydro-7H-imidazo[4,5-f]quinoline-6-carboxylate] | 1 to 10 nM | 1 to 100 nM |
| CC(=O)N1CCc2c(c(-c3cccc4cc(-c5cnn(CCC6CCN(c7ccc(C(=O)N[C@H]8CC[C@H](Oc9ccc(C#N)c(Cl)c9)CC8)nn7)CC6)c5)ncc34)nn2[C@H]2CCOC2)C1 [Compound 85, 6-[4-[2-[4-[8-[5-acetyl-1-[(3S)-tetrahydrofuran-3-yl]-6,7-dihydro-4H-pyrazolo[4,3-c]pyridin-3-yl]-3-isoquinolyl]pyrazol-1-yl]ethyl]-1-piperidyl]-N-[4-(3-chloro-4-cyano-phenoxy)cyclohexyl] pyridazine-3-carboxamide] | < 1 nM | ≤ 0.1 nM |
